Reference: article PMC2267855, “Site-directed mutagenesis of Arginine282 suggests how protons and peptides are co-transported by rabbit PepT1” (The International Journal of Biochemistry & Cell Biology, 2008)
Substitutions are numbered along the chain they refer to. Where a SMILES comes first, the peptide text is derived from it.

What was measured:
R282Q-PepT1 = biological target: T1, R282Q-PepT1 (Oryctolagus cuniculus, UniProt P36836, R282Q); assay: Inhibition of [3H]-D-Phe-L-Gln uptake into Xenopus oocytes expressing R282Q-PepT1 (competition, Ki); assay type: cell-based, rabbit; conditions: pHout 5.5, 0.4 μM [3H]-D-Phe-L-Gln
T1 construct: expressed in transfected cells; host or cells: Xenopus laevis oocytes injected with cRNA
T1 sequence (P36836 1-707 R282Q): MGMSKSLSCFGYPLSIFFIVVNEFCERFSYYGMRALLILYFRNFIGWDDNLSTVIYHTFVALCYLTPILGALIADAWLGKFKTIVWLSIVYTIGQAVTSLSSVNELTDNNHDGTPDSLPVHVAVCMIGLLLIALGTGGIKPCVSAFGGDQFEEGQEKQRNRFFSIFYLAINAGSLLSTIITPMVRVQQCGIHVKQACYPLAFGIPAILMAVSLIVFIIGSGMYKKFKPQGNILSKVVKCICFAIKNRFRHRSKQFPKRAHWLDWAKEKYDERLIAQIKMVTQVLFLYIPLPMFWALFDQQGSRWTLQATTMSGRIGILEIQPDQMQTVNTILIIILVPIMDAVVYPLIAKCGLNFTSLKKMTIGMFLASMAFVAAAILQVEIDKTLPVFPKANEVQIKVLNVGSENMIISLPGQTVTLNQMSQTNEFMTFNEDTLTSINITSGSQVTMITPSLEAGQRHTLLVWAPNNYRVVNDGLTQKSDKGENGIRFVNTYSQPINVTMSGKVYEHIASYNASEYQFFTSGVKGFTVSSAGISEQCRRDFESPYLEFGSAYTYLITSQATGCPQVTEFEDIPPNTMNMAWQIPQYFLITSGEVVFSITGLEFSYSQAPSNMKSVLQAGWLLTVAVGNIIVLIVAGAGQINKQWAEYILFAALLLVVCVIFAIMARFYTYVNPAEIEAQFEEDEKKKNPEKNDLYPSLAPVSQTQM
Protocol: (§1) Zero-trans uptake of [^3H]-D-Phe-L-Gln (17.4 Ci/mmole, custom synthesised, Cambridge Research Biochemicals, Stockton-on-Tees, UK) was performed as previously described ([Meredith, 2004]). Briefly, 5 oocytes were incubated in 100 μl of uptake medium (95 mM NaCl, 2 mM KCl, 1 mM CaCl2, 0.42 mM MgCl2, 10 mM Tris/Hepes pH 7.4 or Tris/Mes pH 5.5) with tracer (0.4 μM) [^3H]-D-Phe-L-Gln. After incubation, the oocytes were washed sequentially five times in 1 ml of ice-cold 120 mM NaCl solution, lysed individually with 100 μl 2% (w/v) SDS and liquid scintillation counted. As a control non-injected oocytes were also incubated in uptake medium with [^3H]-D-Phe-L-Gln as above.
The affinity of wild-type and mutant PepT1 were assessed by competition studies with 0.4 μM [^3H]-D-Phe-L-Gln and Gly-L-Gln present in the uptake medium in concentrations from 0 to 2 mM using the protocol above, and the Ki calculated using the method of [Deves and Boyd (1989)].

wild-type PepT1 = biological target: T2, wild-type PepT1 (Oryctolagus cuniculus, UniProt P36836); assay: Diethylpyrocarbonate inhibition of PepT1-mediated dipeptide uptake and protection by substrates; assay type: cell-based, rabbit; conditions: 5 mM present during 1 mM DEPC incubation (15 min), uptake measured over 1 h
T2 construct: expressed in transfected cells; host or cells: Xenopus laevis oocytes injected with cRNA
T2 sequence (P36836 1-707): T1 sequence (P36836 1-707 R282Q) with Q282R
Protocol: as §1
Diethylpyrocarbonate (DEPC) inhibition of PepT1 was performed using a similar protocol to that of [Terada, Saito, and Inui (1998)]. Briefly, PepT1 oocytes were preincubated with 1 mM DEPC for 15 min at pHout 5.5 in the absence or presence of the PepT1 substrates Gly-L-Gln, N-Acetyl-Phe ([Meredith et al., 2000]), and L-Ala-Tyramine (custom synthesised) and the non-substrate Tyr (all 5 mM). The oocytes were then washed in uptake medium before uptake assays were performed as detailed above.

Compound: NCC(=O)N[C@@H](CCC(N)=O)C(=O)O [Gly-L-Gln] (H-Gly-Gln-OH)
- Ki (R282Q-PepT1): 460 ± 220 µM
- protection of PepT1 from DEPC inhibition (wild-type PepT1): largely prevented
